In patent US12629415B2, “Vaccine adjuvants” (THE PROVOST, FELLOWS, FOUNDATION SCHOLARS, AND THE OTHER …, priority 2018, dated 2026):
Entries after “also recorded” stand apart in the source; their conditions may differ.

Key:
PBMCs or CBMCs [1] = assay: HEK-Blue TNFα assay on supernatants; format: cell-based, human; conditions: CBMCs compared with PBMCs; 4, 8 or 24 hours
Procedure: (§1) Poly(I:C) (5 μg/ml) (Invivogen), Poly(dA:dT) (5 μg/ml) (Sigma-Aldrich), 2′3′ cGAMP (10 μg/ml), 5′ triphosphate double stranded RNA (5′ ppp dsRNA) (2.5 μg/ml) and HSV-60 (2 μg/ml) (all from Invivogen) were transfected into PBMCs or CBMCs using TransIT-X2 (Mirus).
(§2) Measurement of cytokines—HEK Blue TNFα/IFNα/β Assays were performed as per the manufacturer's (Invivogen) instructions using Quanti-Blue Detection Reagent. SEAP levels were determined using a spectrophotometer plate reader at 630 nm. IFNα (3425-1H-6, Mabtech) and IP-10 (DY266, R&D Systems) were detected by sandwich ELISA. IFNα ELISA used pan specific IFNα antibodies, which allows detection of IFNα subtypes 1/13, 2, 4, 5, 6, 7, 8, 10, 14, 16 and 17. BioLegend LEGENDplex™ Human Inflammation Panel (13-plex) was carried out as per manufacturer's (Biolegend) instructions to determine levels of IFNγ, IL-10, IL-12p70 and IL-23. A BD LSR Fortessa cell analyser was used to acquire samples and BioLegend LEGENDplex™ software was used for analysis.

[2] = system: adult PBMCs or neonatal CBMCs; assay: HEK-Blue IFNα/β SEAP assay on supernatants of stimulated mononuclear cells; format: cell-based, human; conditions: for innate immune response in neonatal and/or paediatric blood: compared with adult blood, summary statement
Procedure: Isolation of mononuclear cells and monocytes—Primary PBMCs or CBMCs were isolated from healthy human blood or cord blood. Monocytes were isolated by negative selection using Monocyte Isolation Kit II (Miltenyi). […] Cells were cultured at 37° C., 5% CO2, 95% air in RPMI-1640, with stable 2.5 mM L-glutamine and 0.5 mM sodium pyruvate with 10% FBS (all from Sigma-Aldrich).
as §1, §2

PBMCs or CBMCs [3] = assay: IFNα sandwich ELISA on supernatants; format: cell-based, human; conditions: for IFNα secretion (ELISA): CBMCs compared with PBMCs, 8 or 24 h
Procedure: as §1, §2

bovine PBMCs = assay: Bovine IFN-γ ELISA on stimulated PBMCs; format: cell-based, cattle; conditions: calves <1 year old; ConA 1 μg/ml with or without LPS 100 pg/ml; 72 hours
Procedure: Bovine peripheral blood mononuclear cells were isolated from whole blood samples collected in 9m1 vacutainers containing Heparin anticoagulant. PBMCs were spun and separated using leucosep tubes (Cruinn) and a density gradient histopaque 1077 (Sigma-Aldrich) at a speed of 1200 g for 20 minutes. Red blood cell contamination was eliminated using sterile 0.25% sodium chloride (Baxter) as a lysis buffer. The cells were subsequently washed twice in PBS at a speed of 600 g for 10 minutes to remove impurities.
Cells were counted using a haemocytometer, microscope and trypan blue (Sigma Aldrich) and seeded at appropriate densities in tissue culture plates (Cruinn) containing media. The cells were incubated at 37° C. at 5% CO2 treated within hours of plating to avoid unwanted cell death.
When analysing the effects of IL-1β on T cell activation, cells were pre-treated with 250 μg/ml of IL-1 receptor antagonist (IL-1Ra) 40 minutes before stimulation with IL-1β (25 ng/ml). Cells were subsequently stimulated with concanavalin A (1 μg/ml) 1 hour after addition of IL-1β. Similarly, when analysing the effects of polydA:dT on T cell activation, cells were stimulated with polydA:dT (1 μg/ml) 1 hour before ConA treatment (1 μg/ml). LPS (100 pg/ml) primed cells were incubated with YVAD-FMK (10 μm), an inhibitor specific for caspase-1. After 40 minutes, the cells were stimulated with alum (50 μg/ml) for 24 hours and supernatants were then harvested and analysed by ELISA for IL-1β
Capture antibodies (50 μl/well), diluted in the appropriate buffers, were dispensed into the wells of high binding plates (Greiner Bio-One) and incubated overnight at room temperature or 4° C. For analysis of IL-17, the ELISA plates were pre-coated with capture antibody by the manufacturing before delivery. The wells were washed with PBS/Tween 3 times and the plates were then incubated with 150 μl of blocking buffer for 1 hour at room temperature. The plates were washed again before supernatant (neat or diluted) and recombinant standards were added for 1 hour at room temperature. Following this, the plates were washed and 50 μl of detection antibody was added to the wells for a period of 1 or 2 hours at room temperature. After washing, 50 μl diluted streptavidin-HRP was added to the plate for between 30 minutes and 1 hour. After the final wash, 50 μl of 3,3′-, 5,5′-Tetramethylbenzidine (TMB) substrate was added and the plates were incubated in the dark. The reaction was stopped by addition of 1M sulphuric acid and the absorbance readings were measured at 450 nm using a microtitre plate reader. The cytokine concentrations were calculated using a linear regression standard curve from recombinant cytokines of known concentration. Skanit™ software was used to estimate values.

PBMCs or CBMCs [4] = assay: Quantitative RT-PCR of TNFα, IFNα and CXCL10 mRNA; format: cell-based, human; conditions: CBMCs vs PBMCs
Procedure: as §1
Quantitative RT-PCR—Total RNA from PBMCs or CBMCs was extracted using trizol extraction as previously described (16) and was reverse transcribed using MMLV Reverse Transcriptase (Promega) according to the manufacturer's protocol. This cDNA served as template for amplification of target genes, along with the ‘housekeeping’ gene βActin, by real-time PCR with SensiFast SYBR Green (Bioline) to determine the relative amounts of CXCL10, IFNα and TNFα mRNA. The ABI 7900HT system (Applied Biosystems) was used for real-time PCR, and the cycling threshold method (2^−(ΔΔCt)) was used for relative quantification by comparative method after normalization to βActin expression.

IRF7 = assay: TransAM IRF7 activation assay on nuclear extracts; format: cell-based, human; conditions: CBMCs; LPS 15 min, CpG 1 h, Poly(I:C) transfection 1 h
Procedure: (§3) IRF3/7 activation—Active Motif TransAM™ IRF3 and IRF7 assays were carried out on nuclear extracts from PBMCs or CBMCs, harvested as per manufacturer's (Active Motif) instructions, to detect and quantify IRF3 or IRF7 activation.

IRF3 = assay: TransAM IRF3 activation assay on nuclear extracts; format: cell-based, human; conditions: CBMCs
Procedure: as §3

PBMCs or CBMCs [5] = assay: CXCL10 (IP-10) ELISA; format: cell-based, human; conditions: CBMCs compared with PBMCs
Procedure: as §1, §2

PBMCs or CBMCs [6] = assay: BioLegend LEGENDplex Human Inflammation Panel; format: cell-based; conditions: CBMCs and PBMCs; Poly(I:C) 24 h, LPS 4 h, CpG ODN 24 h
Procedure: as §1, §2

[7] = system: mononuclear cells from cord blood, children's blood or adult blood; assay: HEK-Blue IFNα/β and TNFα assays on mononuclear cells of cord blood, children and adults; format: cell-based, human; conditions: transfection 24 h, 4-24 months, 2-5 years, 6-11 years
Description: Umbilical cord blood samples were obtained from term births following normal pregnancy, labour and delivery at National Maternity Hospital (NMH), Holles St, Dublin 2. […] Venous blood from infants, children and adolescents of various ages was collected during elective surgical procedures where no indication of infection was present (such as hydrocele repair, umbilical hernia repair, onychocryptosis, orchipexy repair) in Our Lady's Children's Hospital Crumlin (OLCHC), Dublin 12. […] Volumes drawn were age and weight dependent, according to standard, approved guidelines. Ethics approval was obtained from the Ethics Committees of NMH and OLCHC and informed consent was obtained from each subject or their parent/guardian. Adult blood samples were from healthy adults, supplied by the Irish Blood Transfusion Service. • Poly(I:C), Poly(dA:dT) and cGAMP were obtained from Invivogen • Poly (dA:dT) is a repetitive synthetic double-stranded DNA sequence of poly(dA-dT)-poly(dT-dA) http://www.invivopen.com/poly-dadt-naked • Poly (I:C) comprises long strands of inosine poly(I) homopolymer annealed to strands of cytidine poly(C) homopolymer http://www.invivogen.com/polyic-hmw. • cGAMP is cyclic [G(2′,5′)pA(3′,5′)p]; Formula: […], 2Na Methodology
Isolation of mononuclear cells and monocytes—Primary PBMCs or CBMCs were isolated from healthy human blood or cord blood. Monocytes were isolated by negative selection using Monocyte Isolation Kit II (Miltenyi). Monocyte purity was assessed using CD14 staining and was routinely 85-95%. Cells were cultured at 37° C., 5% CO2, 95% air in RPMI-1640, with stable 2.5 mM L-glutamine and 0.5 mM sodium pyruvate with 10% FBS (all from Sigma-Aldrich).
as §1, §2

How did the TNFα production (PBMCs or CBMCs [1]) turn out when `CCCc1nc2c(N)nc3ccccc3c2s1` [CL075, reference compound] was run?
Its TNFα production is “no significant difference in TNFα production”.

Which results are given for `Nc1nc2c(ncn2[C@@H]2O[C@@H]3COP(=O)(O)O[C@H]4[C@@H](O)[C@H](n5cnc6c(N)ncnc65)O[C@@H]4COP(=O)(O)O[C@@H]2[C@@H]3O)c(=O)[nH]1` [cGAMP, cyclic [G(2′,5′)pA(3′,5′)p]]?
innate immune response in neonatal and/or paediatric blood [2]: robust innate immune response in neonatal and/or paediatric blood; IFNα secretion (ELISA) (PBMCs or CBMCs [3]): CBMCs responded equally well or with enhanced IFNα-production when compared with PBMCs; level of IFNα produced, relative to Poly(I:C) or Poly(dA:dT) (PBMCs or CBMCs [3]; adult and neonatal cells): lower than that in response to either Poly(I:C) or Poly(dA:dT); TNFα production (PBMCs or CBMCs [1]): significantly more TNFα production from neonatal cells than from adult cells

How did the “IFN-γ secretion by ConA stimulated bovine PBMCs” value (bovine PBMCs) turn out when “interleukin 1: cytokine interleukin 1 added with ConA [reference compound]” was run?
The value was “enhanced IFN production”.

What does the source list for “polyinosinic-polycytidylic acid [Poly(I:C)]”?
innate immune response in neonatal and/or paediatric blood [2]: robust innate immune response in neonatal and/or paediatric blood; type I IFN (IFNα/β) production ([2]; neonatal CBMCs compared with adult PBMCs, stimulation 4, 8 or 24 h): no inhibition of type I IFN production in CBMCs when compared to PBMCs; IFNα secretion (ELISA) (PBMCs or CBMCs [3]): equivalent or enhanced CNA sensor responses in neonates compared to adults; TNFα production (PBMCs or CBMCs [1]): significantly more TNFα production from neonatal cells than from adult cells; CXCL10 mRNA expression (PBMCs or CBMCs [4]; 4 h): no inhibition of transcription; IFNα mRNA expression (PBMCs or CBMCs [4]; 24 h): no inhibition of transcription; TNFα mRNA expression (PBMCs or CBMCs [4]; CNA 4 h, LPS 2 h): no significant difference in TNFα levels; IRF7 activation (IRF7): not significantly activated; increase in IRF3 activation above basal levels (IRF3): ~80%; CXCL10 protein secretion (PBMCs or CBMCs [5]): no significant difference in the CXCL10 response between PBMCs or CBMCs; IFNγ (PBMCs or CBMCs [6]): induces Th1 polarising IL-12p70 and IFNγ in CBMCs; also recorded: significantly increased in CBMCs compared to PBMCs; also recorded: neonates produced significantly higher levels of both IL-12p70 and IFNγ; IL-10 (PBMCs or CBMCs [6]): low but detectable, with no significant difference between adult and cord blood cells noted; also recorded: no difference in levels of anti-inflammatory IL-10 or Th17-polarising IL-23 between neonates and adults; IL-12p70 (PBMCs or CBMCs [6]): induces Th1 polarising IL-12p70 and IFNγ in CBMCs; also recorded: increased in CBMCs compared to PBMCs; also recorded: significantly enhanced response to Poly(I:C) transfection was found in CBMCs compared to PBMCs; also recorded: neonates produced significantly higher levels of both IL-12p70 and IFNγ; IL-23 (PBMCs or CBMCs [6]): low but detectable, with no significant difference between adult and cord blood cells noted; also recorded: no difference in levels of anti-inflammatory IL-10 or Th17-polarising IL-23 between neonates and adults; TNFα production across age groups [7]: maintenance of cord blood responsiveness to CNA was also observed for both Poly(I:C) and Poly(dA:dT)-induced TNFα production to the age of 24 months; production of type I IFN across age groups [7]: maintained throughout childhood; also recorded: maintained up to the age of two
